Values of other authors in patent US20190350879A1, “METHOD OF TREATING PAIN USING RACEMIC MIXTURE OF S-KETAMINE AND R-KETAMINE” (priority 2017, published 2019).

Key:
[1] = test system: N-Methyl-D-Aspartate receptors; conditions: S(+)ketamine relative to R-isomer; target not named
[2] = S(+)ketamine compared to R-isomer

Structure (SMILES): CN[C@]1(c2ccccc2Cl)CCCCC1=O [S(+)ketamine]
- affinity, times greater [1]: approximately four
- psychotomimetic side effects [2]: greater psychotomimetic side effects
